Reference: US20160367497A1, “METHODS AND COMPOSITIONS FOR TREATING NEUROPATHIES” (Washington University, priority 2007, published 2016)

Assays:
[1] = system: AMPK; experiment: AMPK phosphorylation in Neuro2a cells (phospho-specific western blot); type: cell-based; settings: for effect on resveratrol-mediated activation of AMPK (AMPK and ACC phosphorylation): resveratrol 10 μM, 2 h, sirtinol 10 μM, splitomycin 10 μM, nicotinamide 10 mM, STO 609 2.5 μM
Method: (§1) FIG. 10A-D illustrates resveratrol activation of AMP kinase in Neuro2a cells. Neuro2a cells were switched to serum-starvation medium (medium containing 0.2% FCS) and treated with DMSO (vehicle control), resveratrol (10 μM) or 5-aminoimidazole-4-carboxamide-1-β-D-ribofuranoside (AICAR) (1 mM). […] Very low levels of phosphorylated AMPK and ACC were detected in DMSO treated control cells at all time points tested. (C) Densitometric analysis of changes in phosphorylated AMPK and (D) phosphorylated ACC under different conditions is shown.
Cell culture and Reagents. Neuro2 cells obtained from ATCC were grown in MEM with 1.5 g/L sodium bicarbonate, 0.1 mM nonessential amino acids, 0.1 mM sodium pyruvate, 2 mM L-glutamine with 10% FCS. For differentiation, cells were switched to serum-starvation medium (containing 0.2% FCS). For neurite outgrowth measurements, experiments were done in quadruplicate and 100 neurites per well were randomly measured using the Metamorph software. Dorsal root ganglia sensory and cortical neurons were established from E13.5 mouse embryos, maintained in neurobasal medium supplemented with B27 (and NGF for DRG neurons) and infected with lentiviruses as described (Araki et al., 2004, Science 305:1010-1013; Hawley et al., 2005, Cell Metab 2:21-23). Resveratrol was a gift from Sirtris Pharmaceuticals (Cambridge Mass.) and AICAR was obtained from Toronto Research (North York, Canada). Splitomycin and Compound C were purchased from Biomol (Plymouth Meeting, Pa.) and Calbiochem (San Diego, Calif.). Sirtinol and nicotinamide were purchased from Sigma (Saint Louis, Mo.)
Plasmids and viruses. The dominant negative (dnAMPK) and constitutively active (caAMPK) plasmids were gifts from Russell Jones (University of Pennsylvania, Philadelphia Pa.), and pCXN-Cre was a gift of Inder Verma (Salk Institute, San Diego, Calif.). All constructs were subcloned into the lentiviral shuttle vector FCIV and verified by nucleotide sequence analysis. Viruses were prepared as previously described (Araki et al., 2004, Science 305:1010-1013). Protein and mRNA analysis. Immunoprecipitations and western blot analysis were performed by standard methods using antibodies directed against total AMPK, phosphorylated AMPK, total ACC or phosphorylated ACC that were obtained from Cell Signaling Technology (Beverley, Mass.). The phospho-AMPK antibody detects endogenous AMPK α1 and α2 when phosphorylated at threonine 172. The LKB1 antibody was purchased from Upstate (Lake Placid, N.Y.). Quantitative RT-PCR analysis was performed using Sybr-Green methodology on a model 7700 instrument (Applied Biosystems) as previously described (Araki et al., 2004, Science 305:1010-1013). Primer sequences were those used in previous studies (Motoshima, et al., 2006, J Physiol 574:63-71).
(§2) To explore the role of polyphenols, in particular, of resveratrol, we tested whether resveratrol altered the activity of AMPK in neuronal cells. Neuro2a neuroblastoma cells were treated with resveratrol (10 μM) and AMPK activation was examined using phospho-AMPK specific antibodies. […] To confirm that AMPK activation by resveratrol results in typical AMPK-mediated downstream responses, we monitored phosphorylation of ACC (acetyl Co-A carboxylase), a primary target of activated AMPK. […] To examine a potential mechanism of resveratrol-mediated AMPK activation, we measured cellular ATP levels as a decreased ATP:AMP ratio increases the phosphorylation of AMPK. ATP levels were monitored using a luciferase-based assay in neuro2A cells treated with resveratrol or Oligomycin, an inhibitor of mitochondrial oxidative phosphorylation and therefore ATP production. While the ATP concentration dropped from 5.874 μM in DMSO-treated cells (control) to 0.976 μM in Oligomycin treated cells within 2 hr, the ATP concentration in resveratrol-treated Neuro2a cells was not altered from control either at 2 hr (6.33 μM) or 24 hr (6.42 μM).

[2] = system: neuro2A cells; experiment: survival of Neuro2A cells in nutrient-deprived conditions; type: cell-based; settings: regardless of the FCS concentration (10% or 0.2%)
Method: When Neuro2A cells are grown in culture in presence of 10% FCS, cells proliferate and ultimately die if cells are not passaged. If grown in the presence of 0.2% FCS, neuro2A cells differentiate and project neurites but ultimately die within one week.

[3] = system: AMPK; experiment: AMPK phosphorylation in brain after intraperitoneal injection; type: in vivo, mice; settings: single intraperitoneal injection 20 mg/kg; within 2 h
Method: (§3) FIG. 15A-E illustrates that resveratrol treatment causes AMPK phosphorylation in the brain. Two-month-old male mice were injected intraperitoneally with resveratrol (20 mg/kg body weight) or DMSO (vehicle) (n=3, for each treatment). Two hr after treatment, the animals were sacrificed and brain lysates were prepared. […] Total AMPK and ACC levels are shown as loading controls in B and D. (E) Densitometry was used to quantify the increased level of AMPK and ACC phosphorylation in the brain of resveratrol treated animals (* p<0.005).
(§4) To extend our in vitro results, we tested whether treating mice with resveratrol activates AMPK in the brain. We injected intraperitoneally 2-month-old male mice with either resveratrol (20 mg/kg body weight) or DMSO (vehicle) (n=3 for each group).

[4] = system: Tfam, PGC-1α and MFN2 mRNA; experiment: mitochondrial biogenesis markers, quantitative RT-PCR in Neuro2a cells; type: cell-based; settings: 10 μM, 3 d
Method: Three days later cells were shifted to serum-starvation medium containing DMSO (control) or resveratrol (10 μM). In addition, uninfected Neuro2a cells in serum-starvation medium were treated with resveratrol alone, the AMPK inhibitor Compound C (CC, Biomol International L.P. (Plymouth Meeting, Pa.)) (10 μM) alone or with resveratrol and CC together. […] Values were normalized to the 18S transcript. Data shown is representative of two independent experiments.
Protein and mRNA analysis. […] Quantitative RT-PCR analysis was performed using Sybr-Green methodology on a model 7700 instrument (Applied Biosystems) as previously described (Araki et al., 2004, Science 305:1010-1013).
We treated Neuro2a cells for 3d with either DMSO (control) or resveratrol (10 μM) in the presence or absence of the AMPK inhibitor Compound C (10 μM). We assessed mitochondrial biogenesis by monitoring mRNA levels of mitofusin 2 (MFN2), a mitochondrial protein and marker of mitochondrial mass and two key regulators of mitochondrial biogenesis, peroxisome proliferator activated receptor γ coactivator 1α (PGC1α) and mitochondrial transcription factor A (Tfam) (Kelly, et al., 2004, Genes Dev 18:357-368).

[5] = system: ACC; experiment: ACC phosphorylation in brain after intraperitoneal injection; type: in vivo, mice; settings: single intraperitoneal injection 20 mg/kg; within 2 h
Method: as §3, §4

[6] = system: neuro2A cells; experiment: Neuro2a cell proliferation, Ki67 immunocytochemistry; type: cell-based; settings: 0.2% fetal calf serum; AICAR 1 mM or resveratrol 10 μM; 24 h after plating; DMSO controls 50%
Method: Neuro2a cells are a widely used as in vitro model of neuronal differentiation. These cells cease to proliferate and begin to differentiate, as evidenced by neurite outgrowth, in response to serum starvation, retinoic acid, or growth factors like neurotrophins and GDNF family ligands. […] Neuro2a cells grown under serum starvation conditions (0.2% fetal calf serum) were treated with AICAR (1 mM) or resveratrol (10 μM).

[7] = system: neuro2A cells; experiment: cellular ATP levels, luciferase-based assay in neuro2A cells; type: cell-based
Method: as §2

[8] = system: acetyl Co-A carboxylase (ACC); experiment: ACC phosphorylation in Neuro2a cells (phospho-specific western blot); type: cell-based; settings: resveratrol 10 μM or AICAR 1 mM; all time points to 72 hr
Method: as §1
Plasmids and viruses. […] Quantitative RT-PCR analysis was performed using Sybr-Green methodology on a model 7700 instrument (Applied Biosystems) as previously described (Araki et al., 2004, Science 305:1010-1013). […]
To explore the role of polyphenols, in particular, of resveratrol, we tested whether resveratrol altered the activity of AMPK in neuronal cells. […] To confirm that AMPK activation by resveratrol results in typical AMPK-mediated downstream responses, we monitored phosphorylation of ACC (acetyl Co-A carboxylase), a primary target of activated AMPK. […] To examine a potential mechanism of resveratrol-mediated AMPK activation, we measured cellular ATP levels as a decreased ATP:AMP ratio increases the phosphorylation of AMPK. […]

NC(=O)c1cccnc1 [Nam, nicotinamide]
effect on resveratrol-mediated activation of AMPK (AMPK and ACC phosphorylation) [1]: None of the SIRT1 inhibitors attenuated

O=C(O)c1ccc2c3c1cccc3c(=O)n1c3ccccc3nc21 [STO 609]
effect on resveratrol-mediated activation of AMPK (AMPK and ACC phosphorylation) [1]: had no effect

CC(NC(=O)c1ccccc1/N=C/c1c(O)ccc2ccccc12)c1ccccc1 (stereo not drawn) [Sirtinol]
effect on resveratrol-mediated activation of AMPK (AMPK and ACC phosphorylation) [1]: None of the SIRT1 inhibitors attenuated

Oc1ccc(C=Cc2cc(O)cc(O)c2)cc1 [resveratrol]
cell survival [2]: resistant to death for a prolonged period of time | increased AMPK phosphorylation in the brain [3]: 2.5 fold | increase in MFN2 mRNA [4]: 2 fold | increase in PGC-1α mRNA [4]: 2 fold | increase in Tfam mRNA [4]: ~18 fold | AMPK phosphorylation ([1]; resveratrol 10 μM or AICAR 1 mM, 2 h up to 72 h): robust increase in AMPK Thr172 phosphorylation | increased ACC phosphorylation in the brain [5]: 2.1 fold | proliferating cells (Ki67) [6]: 11% | ATP concentration ([7]; 2 hr): 6.33 µM | ATP concentration ([7]; 24 hr): 6.42 µM | ACC phosphorylation [8]: robust phosphorylation of ACC

O=C1CCc2c(ccc3ccccc23)O1 [splitomycin]
effect on resveratrol-mediated activation of AMPK (AMPK and ACC phosphorylation) [1]: None of the SIRT1 inhibitors attenuated
